# Measured values: EP4775569A1, “3CL PROTEASE INHIBITOR FOR TREATING OR PREVENTING CORONAVIRUS INFECTIONS AND USE THEREOF” (The Global Health Drug Discovery Institute, priority 2023, dated 2025)
# Read-outs that look alike come from different tables or passages of the source.
# Assays:
# [1] = Toxicity Testing in Uninfected Cells; assay type: cell-based; conditions: human, Cell-Titer Glo cell viability
# Experimental: Toxicity Testing in Uninfected Cells
# The compound was transferred to a 1536-well plate (Corning No. 9006BC), and then Hela-ACE cells were added (cell density: 600 cells/5 microliter of medium MEM with 2% FBS). After the assay plate was incubated at 37°C in 5% CO2 for 48 hours, cell viability was tested. 2 µL of 50% Cell-Titer Glo (Promega No G7573) was diluted in water and added to a cell assay plate, and then a value on EnVision Plate Reader (Perkin Elmer) was read.
# SARS-CoV-2 = assay: SARS-CoV-2/Hela-ACE Test; assay type: cell-based
# SARS-CoV-2 3CLpro = SARS-CoV-2 3CLpro (Severe acute respiratory syndrome coronavirus 2, UniProt P0DTD1); assay: Enzyme Activity Test; assay type: biochemical
# [2] = uninfected Hela-ACE (HeLa ACE2) cells
# [3] = Severe acute respiratory syndrome coronavirus 2, Hela-ACE cells infected with SARS-CoV-2 (USA-WA1/2020), MOI 0.75-1, 48 hours, read-out: Hela ACE2-CoV-2 EC50
Structure (SMILES),"CC50 at 48 h [1, 2] [nM]",EC50 (SARS-CoV-2; [3]) [µM],IC50 (SARS-CoV-2 3CLpro) [nM],"CC50 at 48 h ([1]; hela-ace2 cells, uninfected Hela-ACE cells) [nM]","EC50 (SARS-CoV-2; Severe acute respiratory syndrome coronavirus 2, HeLa, 48 h, read-out: Hela ACE2-CoV-2 EC50 (µM)) [µM]"
O=C1CCN(c2cc(Cl)cc(OCC(F)(F)F)c2)C(=O)N1c1cncc2ccccc12 [Example 2],> 99000,0.03,,,
O=C1CCN(c2cc(Cl)cc(OCC3CC3)c2)C(=O)N1c1cncc2ccccc12 [Example 3],73400,0.064,,,
O=C1CCN(c2cc(Cl)cc(OCC3CC(F)(F)C3)c2)C(=O)N1c1cncc2ccccc12 [Example 5],> 99000,0.074,,,
O=C1CCN(c2cc(Cl)cc(N3CC4(COC4)C3)c2)C(=O)N1c1cncc2ccccc12 [Example 23],> 99000,0.035,,,
O=C1N(c2cc(Cl)cc(OCC(F)(F)F)c2)CC2(CC2)C(=O)N1c1cncc2ccccc12 [Example 33],> 99000,0.087,,,
Cc1cncc(N2C(=O)CCN(c3cc(Cl)cc(OCC(F)(F)F)c3)C2=O)c1C [Example 47],,,55,,
Cc1ccc2cncc(N3C(=O)CCN(c4cc(Cl)cc(OCC(F)(F)F)c4)C3=O)c2c1 [Example 48],,,50,> 99000,0.052
O=C1CCN(c2cc(Cl)cc(OCC(F)(F)F)c2)C(=O)N1c1cncc2ccc(F)cc12 [Example 49],,,43,,
O=C1CCN(c2cc(F)c(Cl)c(OCC(F)(F)F)c2)C(=O)N1c1cncc2ccccc12 [Example 55],74000,0.072,,,
